# In patent US20230242494A1, “MALONITRILE DERIVATIVES” (Hoffmann-La Roche Inc., priority 2020, published 2023):
# Molecular target: T1, human cGAS (residues 161-522) (Homo sapiens, UniProt Q8N884)
# T1 construct: human cGAS (residues 161-522); made in house
# Test: cGAS Activity Assay—Malachite Green
# Format: biochemical
# Details: recombinant purified human cGAS 25 nM; 80 μM ATP, 80 μM GTP, 100 nM ISD; 4 hour at RT; phosphate detection by Malachite Green
# Method: Compounds were tested for cGAS inhibition in a coupled enzymatic assay based on Phosphate detection by Malachite Green. Final assay conditions were 20 mM TRIS pH 7.5 (Applichem), 5 mM MgCl2 (Sigma) and 0.01% BSA (Sigma) supplemented with 80 μM ATP (Sigma), 80 μM GTP (Sigma) and 100 nM Interferon Stimulating DNA (ISD) (Microsynth). Recombinantly expressed purified human cGAS (residues 161-522) was used at 25 nM.
# All compounds were prepared as 10 mM stock solutions in DMSO and a 16 pt dilution series in DMSO with a dilution factor of 2.5 was prepared. 1 μL of DMSO dilution series was transferred to 32.3 μL reaction buffer, mixed by pipetting up/down, spun for 1 minute at 3000 rpm and was visually inspected for precipitation. 5 μL of 3-fold enzyme stock solution were transferred to an empty 384-well Black/Clear Flat Bottom Polystyrene NBS (Corning) rows 3-24. Rows 1-2 were filled with assay buffer. Plates were spun 10 seconds at 1000 rpm (164×g). 5 μL of compound intermediate dilution was added and mixed by pipetting up/down to rows 3-24. Rows 1-2 were filled with 3.1% DMSO assay buffer. Plates were spun 10 seconds at 1000 rpm (164×g). 5 μL 3-fold Nucleotide/DNA mix was added to all wells to start the reaction. Plates were spun 10 seconds at 1000 rpm (164×g) and incubated for 4 hour at room temperature (RT) in the dark. 5 μL 4 U/ml PPase (Sigma) were added to all wells. Plates spun 10 seconds at 1000 rpm (164×g). 10 μL BioMol green Solution (Enzo Life Sciences) was added to all wells. Plates spun 10 seconds at 1000 rpm (164×g) and incubated 30 minutes at RT in the dark. Absorbance data was collected 620 nm on an EnVision Multilable Reader (Perkin Elmer) and the following measurement settings were used: excitation filter photometric was 620 nm; excitation from the top; measurement height was 1 mm; number of flashes was 30; number of flashes integrated was 1.
# All plates are checked for abnormalities and outliers in the Blank Control (no protein, row 1) and the Neutral Control (no compound, row 2) are excluded using the 3*SD rule. Data was normalized to 0 and 100% by Blank and Neutral Control and each curve was fitted and judged using the 4 parameter logistic equation to determine the IC50 for cGAS inhibition.
# Table 13 provides IC50 values (μM) for cGAS inhibition obtained for particular examples of the present invention as measured by the above-described assay.
# T1 sequence (Q8N884 161-522): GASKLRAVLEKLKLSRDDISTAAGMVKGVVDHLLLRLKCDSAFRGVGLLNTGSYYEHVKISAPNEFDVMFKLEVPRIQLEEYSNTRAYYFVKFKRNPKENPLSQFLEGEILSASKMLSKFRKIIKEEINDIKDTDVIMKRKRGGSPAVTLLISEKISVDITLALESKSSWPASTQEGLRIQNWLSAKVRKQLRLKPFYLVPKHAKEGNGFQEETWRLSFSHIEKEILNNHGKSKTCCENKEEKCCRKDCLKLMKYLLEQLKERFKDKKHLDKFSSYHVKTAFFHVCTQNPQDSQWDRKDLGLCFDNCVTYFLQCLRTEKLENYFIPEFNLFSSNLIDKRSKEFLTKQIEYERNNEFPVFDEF
row,SMILES,IC50 [nM]
1,"Cc1oncc1/C(O)=C(\C#N)C(=O)Nc1cccc(S(C)(=O)=O)c1 [Example 26, (Z)-2-cyano-3-hydroxy-3-(5-methylisoxazol-4-yl)-N-(3-(methylsulfonyl)phenyl) acrylamide]",1510
2,"Cc1oncc1/C(O)=C(\C#N)C(=O)Nc1ccc(S(C)(=O)=O)cc1Cl [Example 61, (Z)-N-(2-chloro-4-methylsulfonyl-phenyl)-2-cyano-3-hydroxy-3-(5-methylisoxazol-4-yl)prop-2-enamide]",110
3,"Cc1oncc1/C(O)=C(\C#N)C(=O)Nc1ccc(C(=O)N(C)C)cc1 [Example 35, 4-[[(Z)-2-cyano-3-hydroxy-3-(5-methylisoxazol-4-yl)prop-2-enoyl]amino]-N,N-dimethyl-benzamide]",710
4,"Cc1noc(C)c1NS(=O)(=O)c1ccc(NC(=O)/C(C#N)=C(\O)c2cnoc2C)cc1 [Example 59, (Z)-2-cyano-N-(4-(N-(3,5-dimethylisoxazol-4-yl)sulfamoyl)phenyl)-3-hydroxy-3-(5-methylisoxazol-4-yl)acrylamide]",450
5,"CCN(CC)C(=O)CNS(=O)(=O)c1ccc(NC(=O)/C(C#N)=C(\O)c2cnoc2C)cc1 [Example 53, (Z)-2-cyano-N-(4-(N-(2-(diethylamino)-2-oxoethyl)sulfamoyl)phenyl)-3-hydroxy-3-(5-methylisoxazol-4-yl)acrylamide]",300
6,"Cc1oncc1/C(O)=C(\C#N)C(=O)Nc1cc(C(F)(F)F)cc(C(F)(F)F)c1 [Example 6, (Z)-N-(3,5-bis(trifluoromethyl)phenyl)-2-cyano-3-hydroxy-3-(5-methylisoxazol-4-yl)acrylamide]",6980
7,"Cc1oncc1/C(O)=C(\C#N)C(=O)Nc1ccc(Cl)cc1 [Example 20, (Z)-N-(4-chlorophenyl)-2-cyano-3-hydroxy-3-(5-methylisoxazol-4-yl)acrylamide]",1120
8,"Cc1oncc1/C(O)=C(\C#N)C(=O)Nc1ccc(OC(F)(F)F)cc1 [Example 11, (Z)-2-cyano-3-hydroxy-3-(5-methylisoxazol-4-yl)-N-(4-(trifluoromethoxy)phenyl) acrylamide]",1290
9,"Cc1oncc1/C(O)=C(\C#N)C(=O)Nc1ccc(S(=O)(=O)N2CCOCC2)cc1 [Example 47, (Z)-2-cyano-3-hydroxy-3-(5-methylisoxazol-4-yl)-N-(4-(morpholinosulfonyl)phenyl)acrylamide]",200
10,"Cc1oncc1/C(O)=C(\C#N)C(=O)Nc1ccc(S(=O)(=O)Nc2nccs2)cc1 [Example 40, (Z)-2-cyano-3-hydroxy-3-(5-methylisoxazol-4-yl)-N-[4-(thiazol-2-ylsulfamoyl)phenyl]prop-2-enamide]",140
11,"CC(=O)Nc1ccc(NC(=O)/C(C#N)=C(\O)c2cnoc2C)cc1 [Example 42, (Z)-N-(4-acetamidophenyl)-2-cyano-3-hydroxy-3-(5-methylisoxazol-4-yl)prop-2-enamide]",270
12,"Cc1cc(NC(=O)/C(C#N)=C(\O)c2cnoc2C)ccc1Br [Example 23, (Z)-N-(4-bromo-3-methylphenyl)-2-cyano-3-hydroxy-3-(5-methylisoxazol-4-yl)acrylamide]",1810
13,"Cc1oncc1/C(O)=C(\C#N)C(=O)Nc1ccc(C(N)=O)cc1 [Example 44, 4-[[(Z)-2-cyano-3-hydroxy-3-(5-methylisoxazol-4-yl)prop-2-enoyl]amino]benzamide]",240

# Further lines, results first:
row,IC50 [nM],SMILES
1,380,"Cc1oncc1/C(O)=C(\C#N)C(=O)Nc1ccc(S(=O)(=O)c2ccc(C#N)cc2)cc1 [Example 121, (Z)-2-Cyano-N-(4-((4-cyanophenyl)sulfonyl)phenyl)-3-hydroxy-3-(5-methylisoxazol-4-yl)acrylamide]"
2,210,"Cc1oncc1/C(O)=C(\C#N)C(=O)Nc1nccc(-c2ccccc2)n1 [Example 68, (Z)-2-cyano-3-hydroxy-3-(5-methylisoxazol-4-yl)-N-(4-phenylpyrimidin-2-yl)acrylamide]"
3,20,"Cc1oncc1/C(O)=C(\C#N)C(=O)Nc1ncc(S(=O)(=O)c2ccccc2)cn1 [Example 111, (Z)-N-[5-(benzenesulfonyl)pyrimidin-2-yl]-2-cyano-3-hydroxy-3-(5-methylisoxazol-4-yl)prop-2-enamide]"
4,1020,"Cc1oncc1/C(O)=C(\C#N)C(=O)Nc1ccc(Oc2ccccc2)cn1 [Example 83, (Z)-2-cyano-3-hydroxy-3-(5-methylisoxazol-4-yl)-N-(5-phenoxypyridin-2-yl)acrylamide]"
5,1900,"Cc1cc(NC(=O)/C(C#N)=C(\O)c2cnoc2C)ccc1C(F)(F)F [Example 75, (Z)-2-cyano-3-hydroxy-N-(3-methyl-4-(trifluoromethyl)phenyl)-3-(5-methylisoxazol-4-yl)acrylamide]"
6,1340,"Cc1oncc1/C(O)=C(\C#N)C(=O)Nc1cccc(NC(=O)c2ccccc2)c1 [Example 71, (Z)-N-(3-(2-cyano-3-hydroxy-3-(5-methylisoxazol-4-yl)acrylamido)phenyl) benzamide]"
7,420,"Cc1oncc1/C(O)=C(\C#N)C(=O)Nc1ccc(C(=O)Nc2ccccc2)cc1 [Example 67, (Z)-4-(2-cyano-3-hydroxy-3-(5-methylisoxazol-4-yl)acrylamido)-N-phenylbenzamide]"
8,160,"Cc1oncc1/C(O)=C(\C#N)C(=O)Nc1ncc(OCC2CCCC2)cn1 [Example 85, (Z)-2-cyano-N-(5-(cyclopentylmethoxy)pyrimidin-2-yl)-3-hydroxy-3-(5-methylisoxazol-4-yl)acrylamide]"
9,240,"Cc1oncc1/C(O)=C(\C#N)C(=O)Nc1ncc(S(C)(=O)=O)c(-c2ccccc2Cl)n1 [Example 140, (Z)-N-(4-(2-chlorophenyl)-5-(methylsulfonyl)pyrimidin-2-yl)-2-cyano-3-hydroxy-3-(5-methylisoxazol-4-yl)acrylamide]"
10,3460,"Cc1oncc1/C(O)=C(\C#N)C(=O)Nc1ccc(Oc2ccc(Cl)cc2)cc1 [Example 63, (Z)-N-(4-(4-chlorophenoxy)phenyl)-2-cyano-3-hydroxy-3-(5-methylisoxazol-4-yl)acrylamide]"
11,1670,"Cc1oncc1/C(O)=C(\C#N)C(=O)Nc1ccc(C(F)(F)F)c(Cl)c1 [Example 65, (Z)-N-(3-chloro-4-(trifluoromethyl)phenyl)-2-cyano-3-hydroxy-3-(5-methylisoxazol-4-yl)acrylamide]"
12,170,"COc1cnc(NC(=O)/C(C#N)=C(\O)c2cnoc2C)nc1-c1ccccc1 [Example 124, (Z)-2-cyano-3-hydroxy-N-(5-methoxy-4-phenylpyrimidin-2-yl)-3-(5-methylisoxazol-4-yl)acrylamide]"
13,120,"Cc1oncc1/C(O)=C(\C#N)C(=O)Nc1nccc(OCCF)n1 [Example 101, (Z)-2-cyano-N-(4-(2-fluoroethoxy)pyrimidin-2-yl)-3-hydroxy-3-(5-methylisoxazol-4-yl)acrylamide]"
14,60,"Cc1oncc1/C(O)=C(\C#N)C(=O)Nc1ncc(S(=O)(=O)c2ccccc2)c(-c2cccc(F)c2)n1 [Example 139, (Z)-2-cyano-N-(4-(3-fluorophenyl)-5-(phenylsulfonyl)pyrimidin-2-yl)-3-hydroxy-3-(5-methylisoxazol-4-yl)acrylamide]"
15,280,"Cc1oncc1/C(O)=C(\C#N)C(=O)Nc1ncc(C(F)(F)F)cc1Cl [Example 84, (Z)-N-(3-chloro-5-(trifluoromethyl)pyridin-2-yl)-2-cyano-3-hydroxy-3-(5-methylisoxazol-4-yl)acrylamide]"
